Tests used:
Format in all cases: cell-based
[1] = molecular target: T1, CaMKII/GluN2B co-localization in HEK293 cells (Homo sapiens, UniProt Q9UQM7); test: Ionomycin-induced co-localization of GFP-CaMKII and mCherry-2BC in HEK293 cells; settings: 10 μM inhibitor
T1 construct: expressed in transfected cells; host or cells: HEK293 cells
Method: In a series of exemplary methods, an in vitro kinase assay was used where purified CaMKIIα is incubated at 30° C. with GST-GluA1 alongside ATP. CaMKIIα normally phosphorylates S831 on the GluA1 subunit and this phosphorylation can be measured as a readout of CaMKIIα enzymatic activity (see e.g., FIG. 8B). […] In another exemplary method, binding of purified CaMKIIα to immobilized GST-GluN2B-c was induced by Ca^2+/CaM in the presence of a vehicle (none), 4 mM ADP or with […] AS105. […] At the same time, two exemplary methods were performed to observe ionomycin or chemical LTP (cLTP) induced co-localization of CaMKII and GluN2B either in HEK293 cells co-expressing GFP-CaMKII and mCherry-2BC or dissociated rat hippocampal cultures expressing GFP-CaMKII and mCh-PSD95 intrabody. HEK293 cells, incubating with vehicle or 10 μM AS105, were subjected to ionomycin. Hippocampal cultures, also incubating with either vehicle or 10 μM AS105, were treated with a chemical LTP (cLTP) stimulus (e.g., 100 μM glutamate, 10 μM glycine for 45 seconds). Confocal microscopy images were taken before and after each stimulus.

[2] = tested on: CaMKII movement to excitatory synapses; test: cLTP-induced CaMKII movement to excitatory synapses in the presence of soluble oligomeric Aβ; settings: 0.5 μM Aβ, inhibitor 10 μM, 45 minutes prior to cLTP
pT286 CaMKII = test: CaMKII T286 phosphorylation in hippocampal cultures after chemical LTP stimulation
Method: In this Example, other possibilities of AS283 action were tested. If AS283 blocks pT286 but not LTP because it also circumvents the need of pT286 for LTP, then AS283 should not only fail to block LTP in WT mice (as illustrated in FIGS. 3A-3B) but should also restore the capacity for LTP induction in T286A mutant mice. […] Specifically, in an exemplary method, the addition of AS283 (10 μM) enabled LTP in slices from the T286A mutant mice (FIGS. 3C-3D).
Immunoblot analysis. Protein concentration was determined using the Pierce BCA protein assay (Thermo-Fisher). Before undergoing SDS-PAGE, samples were boiled in Laemmli sample buffer for 5 min at 95° C. Proteins were separated in a resolving phase polymerized from 10% acrylamide, then transferred to a polyvinylidene difluoride membrane at 24 V for 1-2 h at 4° C. […] Blots were developed using chemiluminescence (Super Signal West Femto, Thermo-Fisher) imaged using the Chemi-Imager 4400 system (Alpha-Innotech), or imaged directly by fluorescence (Cytiva CyDye 700 goat anti-mouse and CyDye 800 goat anti-rabbit secondary antibodies.) using an OdysseyFc imaging instrument. All immunoblots were analyzed by densitometry (ImageJ). […]

[3] = molecular target: T2, CaMKII F89G binding to GluN2B in HEK cells (Homo sapiens, UniProt Q9UQM7, F89G); test: Ionomycin-induced co-localization of GFP-CaMKII F89G and mCh-GluN2B in HEK cells; settings: 10 μM NM-PP1
T2 construct: expressed in transfected cells; host or cells: HEK cells
T2 sequence (Q9UQM7 whole entry F89G): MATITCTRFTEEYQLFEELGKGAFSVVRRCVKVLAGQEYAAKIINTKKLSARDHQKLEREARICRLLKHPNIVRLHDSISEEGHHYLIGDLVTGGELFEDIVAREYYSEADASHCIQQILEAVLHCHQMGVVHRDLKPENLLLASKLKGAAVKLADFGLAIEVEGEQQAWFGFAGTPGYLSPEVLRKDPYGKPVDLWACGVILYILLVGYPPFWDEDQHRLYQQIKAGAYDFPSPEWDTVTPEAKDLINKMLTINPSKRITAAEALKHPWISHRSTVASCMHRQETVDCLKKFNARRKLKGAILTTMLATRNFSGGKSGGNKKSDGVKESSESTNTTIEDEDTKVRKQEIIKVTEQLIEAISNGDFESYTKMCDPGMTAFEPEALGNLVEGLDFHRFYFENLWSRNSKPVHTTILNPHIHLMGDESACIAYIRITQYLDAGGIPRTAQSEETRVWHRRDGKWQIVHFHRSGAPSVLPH
T2 sequence (Q13224 836-1484 S1303A partner limits assumed): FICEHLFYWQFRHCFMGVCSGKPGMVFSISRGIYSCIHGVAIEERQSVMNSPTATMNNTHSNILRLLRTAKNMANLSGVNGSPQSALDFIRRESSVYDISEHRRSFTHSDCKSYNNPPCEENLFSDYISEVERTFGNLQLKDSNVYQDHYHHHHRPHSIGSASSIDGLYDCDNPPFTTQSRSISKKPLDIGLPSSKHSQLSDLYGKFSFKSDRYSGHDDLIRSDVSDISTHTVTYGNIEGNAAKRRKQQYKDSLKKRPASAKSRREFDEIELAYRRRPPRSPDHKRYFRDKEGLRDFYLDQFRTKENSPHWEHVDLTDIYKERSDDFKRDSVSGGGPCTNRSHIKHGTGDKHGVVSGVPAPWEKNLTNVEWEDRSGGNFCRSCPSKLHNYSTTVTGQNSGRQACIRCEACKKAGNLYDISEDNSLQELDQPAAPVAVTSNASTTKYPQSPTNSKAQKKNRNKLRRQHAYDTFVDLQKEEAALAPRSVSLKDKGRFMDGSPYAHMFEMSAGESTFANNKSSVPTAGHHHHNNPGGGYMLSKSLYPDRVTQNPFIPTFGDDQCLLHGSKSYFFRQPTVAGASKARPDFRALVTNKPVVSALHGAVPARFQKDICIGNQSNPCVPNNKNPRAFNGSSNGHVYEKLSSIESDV
Method: This conclusion also predicts that the LTP stimulus-induced movement of CaMKII to excitatory synapses should be (i) impaired in the CaMKII F89G mutant; but (ii) normalized by pharmacogenetic rescue with NM-PP1. Indeed, both predictions were observed experimentally (FIGS. 4D-4E).
Live imaging of HEK cells. HEK cells were grown and transfected with expression vectors for GFP-CaMKII mutants and pDisplay-mCh-GluN2B-c tail (2BC) as previously described; the GluN2B construct used included a S1303A mutation to avoid potential complications by differential phosphorylation of this regulatory site in the different conditions with or without kinase inhibitors. GFP-CaMKII colocalization with GluN2B in response to a Ca^2+ stimulus induced by 10 μM ionomycin was monitored for 5-10 min at 32° C. in imaging buffer (0.87× Hanks Balanced Salt Solution, 25 mM Hepes pH 7.4, 2 mM glucose, 2 mM CaCl2), 1 mM MgCl2) by fluorescence microscopy. Images were acquired on a Zeiss Axiovert 200M equipped with a climate control chamber, using SlideBook software (Intelligent Imaging Innovations). Colocalization analysis was performed by calculating the Pearson's correlation (correlation index) of pDisplay-mCh-2BC and GFP-CaMKII within the cytoplasm of HEK cells after background subtraction.

T1 sequence (Q9UQM7 whole entry): as the sequence (Q9UQM7 whole entry F89G) above, with G89F counted along it
T1 sequence (Q13224 836-1484 S1303A partner limits assumed): as the sequence (Q13224 836-1484 S1303A partner limits assumed) above

| Structure (SMILES) | ionomycin-induced CaMKII/GluN2B co-localization in HEK293 cells [1] | rescue of Aβ-blocked cLTP-induced movement of CaMKII to the synapses [2] | increase in pT286 levels after chemical LTP stimulation (pT286 CaMKII) | binding of CaMKII F89G to GluN2B in HEK cells after ionomycin [3] |
| --- | --- | --- | --- | --- |
| NCCNc1cccc(-c2ccnc3[nH]c4ccccc4c23)c1 [AS283] | failed to inhibit CaMKII binding to GluN2B | rescued | specifically blocked increase in pT286 levels | – |
| CC(C)(C)n1nc(Cc2cccc3ccccc23)c2c(N)ncnc21 [NM-PP1] | – | – | – | fully enabled binding |

Reference: patent publication US20260263429A1, “INHIBITORS OF CA 2+/CALMODULIN-DEPENDENT PROTEIN KINASE II (CAMKII) THAT DO NOT INHIBIT LONG-TERM POTENTIATION (LTP) INDUCTION AND THERAPEUTIC USES THEREOF” (The Regents of the University of Colorado, A Body Corporate, priority 2023, published 2026)
